In patent US11840499B2, “Biobased-fatty acid arginates” (priority 2020, dated 2023):
Like-named read-outs stand apart in the source and are kept apart here.

Assays:
[1] = system: Gram-positive Listeria innocua (ATCC 33090); test: Antimicrobial activity (MIC/MBC) against Listeria innocua; type: cell-based
Experimental: (§1) Antimicrobial activity studies were performed using standard methods. For all compounds, at least 3 independent replicates of quadruplicate tests were conducted. The minimum inhibitory concentration (MIC) was determined as the lowest test compound concentration for which no color change (no active growth) occurred. Minimum bactericidal concentration (MBC) was determined by spreading 100 μl from each growth-negative well onto TSA and incubating at 37° C. for 24 h. MBC was the […] where no viable growth occurred.

[2] = system: Gram-negative Escherichia coli (ATCC 700728); test: microbe, parasite or virus in culture; type: cell-based; settings: for MIC / MBC: E. coli; for MIC: lowest concentration with no color change (no active growth); for MBC: no viable growth on TSA, 37° C., 24 h
Experimental: as §1

[3] = Surfactant properties: surface tension by drop image method, CMC; type: physicochemical; settings: aqueous solution
Experimental: Samples of the analyte were weighed and dissolved in distilled water to make a 10 mM stock solution. The stock solution was then subsequently diluted to make 5 mM, 1 mM, 0.5 mM, 0.25 mM, 0.125 mM, and 0.0625 mM solutions. The series of solutions were used to measure the surface tension using a drop image method with a surface tension instrument. Measurement for each sample was done in triplicate and the average value was calculated. Critical micelle concentration (CMC) is the concentration above which micelles form in the surfactant solution.

[4] = L. innocua, lowest concentration with no color change (no active growth)
[5] = L. innocua, no viable growth on TSA, 37° C., 24 h
[6] = Escherichia coli, ATCC700728, read-out: MIC
[7] = Escherichia coli, ATCC700728, read-out: MBC
[8] = Listeria innocua, ATCC33090, 24 h

| Molecule | MIC [1, 4] [ppm] | MBC [1, 5] [ppm] | MIC [2] [ppm] | MBC [2] [ppm] | MIC [2, 6] [µg/mL] | MBC [2, 7] [µg/mL] | further results |
| --- | --- | --- | --- | --- | --- | --- | --- |
| CCCCCCCC/C=C\CCCCCCCC(=O)N[C@@H](CCCNC(=N)N)C(=O)OCC [Oleic arginate] | 3.6 | 3.6 | 116.4 | 116.4 | – | – | antimicrobial activity (in words) ([2]; Escherichia coli (ATCC 700728)): weak activity |
| CCCCCCCCCCCC(=O)N[C@@H](CCCNC(=N)N)C(=O)OCC.Cl [Ethyl lauroyl arginate, ethyl-N^α-lauroyl-L-arginate HCl, reference compound] | – | – | – | – | 7.3 | 7.3 | MIC ([1]; Listeria innocua, ATCC33090, L. innocua, lowest concentration with no color change (no active growth), read-out: MIC): 7.3 µg/mL; MBC ([1]; Listeria innocua, ATCC33090, L. innocua, no viable growth on TSA, 37° C., 24 h, read-out: MBC): 14.5 µg/mL |
| Oleic phenol arginate | 1.2 | 5.0 | >232.7 | >232.7 | – | – | – |
| CCCCCCCC/C=C\CCCCCCCC(=O)O [Oleic acid] | >232.7 | >232.7 | – | – | > 233 | > 233 | MIC ([1]; Listeria innocua, ATCC33090): > 233 µg/mL; MBC [1, 8]: > 233 µg/mL |
| Soy thymol arginate | 3.6 | 14.5 | >232.7 | >232.7 | – | – | – |
| Isooleic acid | >232.7 | >232.7 | >232.7 | >232.7 | – | – | – |
| Isooleic arginate | 1.8 | 1.8 | >232.7 | >232.7 | – | – | – |
| CCCCCCCCCCCCOS(=O)(=O)[O-].[Na+] [SDS] | – | – | – | – | – | – | critical micelle concentration (CMC), compared to LAE [3]: much higher; surface tension level reached with increasing surfactant concentration ([3]; 0.0625-10 mM): 38 mN/m |
| Isostearic arginate | 3.6 | 7.3 | >232.7 | >232.7 | – | – | – |
| CCCCCCCCCCCCCCCCCC(=O)N[C@@H](CCCNC(=N)N)C(=O)OCC [Stearic arginate] | 14.5 | 29.1 | >232.7 | >232.7 | – | – | – |
| N=C(N)NCCC[C@H](N)C(=O)O [L-arginine (commercial), L-arginine] | >232.7 | >232.7 | – | – | > 233 | > 233 | MIC ([1]; Listeria innocua, ATCC33090): > 233 µg/mL; MBC [1, 8]: > 233 µg/mL |
| CCOC(=O)[C@@H](N)CCCNC(=N)N.Cl.Cl [L-arginine ethyl ester dihydrochloride] | – | – | – | – | > 233 | > 233 | MIC ([1]; Listeria innocua, ATCC33090): > 233 µg/mL; MBC [1, 8]: > 233 µg/mL |
